Experimental data published in ChEMBL document CHEMBL3886365, “Substituted oxadiazole compounds” (2015).

How the values were obtained:
[1] = target: Sphingosine 1-phosphate receptor 1 (Homo sapiens, UniProt P21453); assay: (§1) GTPgammaS Binding Assay: Compounds were loaded in a 384 Falcon v-bottom plate (0.5 ul/well in a 11 point, 3-fold dilution). Membranes prepared from S1P1/CHO cells or EDG3-Ga15-bla HEK293T cells were added to the compound plate (40 ul/well, final protein 3 ug/well) with MULTIDROP. [35S]GTP (1250 Ci/mmol, Perkin Elmer) was diluted in assay buffer: 20 mM HEPES, pH7.5, 10 mM MgCl2, 150 mM NaCl, 1 mM EGTA, 1 mM DTT, 10 uM GDP, 0.1% fatty acid free BSA, and 10 ug/ml Saponin to 0.4 nM. 40 ul of the [35S] GTP solution was added to the compound plate with a final concentration of 0.2 nM. The reaction was kept at room temperature for 45 min. At the end of incubation, all the mixtures in the compound plate were transferred to Millipore 384-well FB filter plates via the VELOCITY11 Vprep liquid handler. The filter plate was washed with water 4 times by using the manifold Embla plate washer and dried at 60° C. for 45 min. MicroScint 20 scintillation fluid (30 ul) was added to each well.; type: functional, cell membranes
[2] = target: Sphingosine 1-phosphate receptor 3 (Homo sapiens, UniProt Q99500); assay: as §1; type: functional, cell membranes
Sphingosine 1-phosphate receptor 3, sequence (Q99500 whole entry): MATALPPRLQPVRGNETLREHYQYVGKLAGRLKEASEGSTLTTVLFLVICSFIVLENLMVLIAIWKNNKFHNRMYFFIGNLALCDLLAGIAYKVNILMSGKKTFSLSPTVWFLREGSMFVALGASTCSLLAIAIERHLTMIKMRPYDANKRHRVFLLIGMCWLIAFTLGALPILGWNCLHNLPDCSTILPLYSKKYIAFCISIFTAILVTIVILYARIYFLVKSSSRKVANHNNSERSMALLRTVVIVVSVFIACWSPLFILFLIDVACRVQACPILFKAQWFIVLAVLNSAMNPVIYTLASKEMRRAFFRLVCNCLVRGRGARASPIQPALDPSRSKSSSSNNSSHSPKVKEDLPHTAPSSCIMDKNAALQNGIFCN

Sphingosine 1-phosphate receptor 1, sequence (P21453 whole entry): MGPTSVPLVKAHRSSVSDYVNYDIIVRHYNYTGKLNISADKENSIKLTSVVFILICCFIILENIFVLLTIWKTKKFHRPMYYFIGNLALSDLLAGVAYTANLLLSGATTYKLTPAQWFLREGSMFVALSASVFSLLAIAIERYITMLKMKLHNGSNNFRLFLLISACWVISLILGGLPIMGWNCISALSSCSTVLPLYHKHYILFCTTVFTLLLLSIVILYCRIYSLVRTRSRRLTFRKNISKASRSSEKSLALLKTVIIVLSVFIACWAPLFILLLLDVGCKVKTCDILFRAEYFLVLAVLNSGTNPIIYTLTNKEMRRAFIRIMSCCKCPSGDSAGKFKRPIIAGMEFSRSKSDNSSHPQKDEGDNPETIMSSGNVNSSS

FC(F)(F)Oc1ccc(-c2noc(CCC3(c4ccccc4)CCCCC3)n2)cc1
EC50 [1]: 5.7 µM
EC50 [2]: > 62 µM
